Laboratory results from US20250223268A1, “4-Methylsulfonylbenzamide Compound, Preparation Method, Herbicidal Composition And Use” (Jiangsu Flag Chemical Industry Co., Ltd., priority 2022, published 2025).

Columns and labels:
Assay type in all cases: in vivo
[1] = test system: Oryza sativa subsp. japonica; assay: Greenhouse herbicidal activity and crop safety comparison (Test Example 2); conditions: Rate 150 g/ha
From the text: (§1) Pre-emergence: Seeds of gramineous weeds (Echinochloa crusgalli, Echinochloa crusgalli var. zelayensis, Echinochloa phyllopogon, Eleusine indica, Digitaria sanguinalis, Leptochloa chinensis, Setaria viridis, Alopecurus japonicus Steud, Beckmannia syzigachne, Polypogon fugax, Alopecurus aequalis, Lolium multiflorum, Poa annua, Aegilops tataschii, Avena fatua, Alopecurus myosuroides, Bromus japonicus), broadleaf weeds (Eclipta prostrata, Amaranthus retroflexus, Rorippa indica, Myosoton aquaticum, Veronica didyma, Galium aparine, Solanum nigrum, Xanthium sibiricum, Conyza canadensis, Sesbania cannabina, Sagittaria trifolia), and Cyperus iria (Cyperus iria, Scirpus juncoides, Cyperus difformis, etc.) were sown in plastic pots (7 cm diameter) with nutrient soil and bottom holes. Crop seeds (including Oryza sativa subsp. indica, Oryza sativa subsp. japonica, Oryza sativa L. var. Glutinosa matsum, Triticum aestivum, Zea mays, Sorghum bicolor, Setaria italica, Glycine max, Gossypium hirsutum, Brassica napus, Arachis hypogaea) were sown in plastic pots (10 cm diameter) with nutrient soil and bottom holes. After sowing, the seeds were lightly covered with soil, and the soil was moistened via bottom water absorption. The pots were placed in a constant-temperature light-controlled growth chamber for 24 hours before soil spraying. Spraying was performed using a 3WP-2000 walking-type spray tower (produced by the Nanjing Agricultural Mechanization Institute, Ministry of Agriculture) with a spindle speed of 96 mm/r, spray height of 300 mm, effective spray width of 350 mm, spray area of 0.35 m^2, and nozzle flow rate of 390 mL/min.
(§2) After treatment, the test materials were air-dried naturally in the laboratory and then transferred to the growth chamber. Results were assessed 14-30 days later.
(§3) Post-emergence: Seeds of gramineous weeds (Echinochloa crusgalli, Echinochloa crusgalli var. zelayensis, Echinochloa phyllopogon, Eleusine indica, Digitaria sanguinalis, Leptochloa chinensis, Setaria viridis, Alopecurus japonicus Steud, Beckmannia syzigachne, Polypogon fugax, Alopecurus aequalis, Lolium multiflorum, Poa annua, Aegilops tataschii, Avena fatua, Alopecurus myosuroides, Bromus japonicus), broadleaf weeds (Eclipta prostrata, Amaranthus retroflexus, Rorippa indica, Myosoton aquaticum, Veronica didyma, Galium aparine, Solanum nigrum, Xanthium sibiricum, Conyza canadensis, Sesbania cannabina, Sagittaria trifolia), and Cyperus iria (Cyperus iria, Scirpus juncoides, Cyperus difformis, etc.) were sown in plastic pots (7 cm diameter) with nutrient soil and bottom holes. Crop seeds (including Oryza sativa subsp. indica, Oryza sativa subsp. japonica, Oryza sativa L. var. Glutinosa matsum, Triticum aestivum, Zea mays, Sorghum bicolor, Setaria italica, Glycine max, Gossypium hirsutum, Brassica napus, Arachis hypogaea) were sown in plastic pots (10 cm diameter) with nutrient soil and bottom holes. After sowing, the pots were placed in the growth chamber until the plants reached the 3-6 leaf stage for foliar spraying. Post-treatment, the materials were air-dried naturally and returned to the growth chamber. Results were assessed 14-21 days later.
(§4) • A: Fresh weight inhibition rate≥80% to 100%; • B: Fresh weight inhibition rate[…] to <80%; • C: Fresh weight inhibition rate≥40% to <60%; • D: Fresh weight inhibition rate≥20% to <40%; • E: Fresh weight inhibition rate<20%; • NT: Not tested.
(§5) Using the above method, the herbicidal activity and crop safety of the present compounds were compared with structurally similar known compounds (CK1, CK2, CK3, CK4: compounds 4-756, 4-759, 1-557, 1-563 from WO2012028579A1; CK5: compound 290-1 from WO2013087577A1; CK6: compound 1-129 from WO2011035874A1).

[2] = test system: Oryza sativa subsp. indica; assay: as above; conditions: Rate 150 g/ha
From the text: as §1, §2, §3, §4, §5

Echinochloa crusgalli = assay: Greenhouse herbicidal activity assay, post-emergence; conditions: Post-emergence test, rate 150 g a.i./hm^2, grade by fresh weight inhibition rate; for pest or weed control at 150 g/ha: Echinochloa crus-galli, read-out: Control efficacy grade, Echinochloa crusgalli
Outline: (§6)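 Foliar spray at 3-6 leaves; pot-grown in nutrient soil in growth chamber; air-dried post-spray. Read-out at 14-21 d: fresh weight inhibition, graded A (≥80% to 100%) down to E (<20%); NT = not tested.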

Leptochloa chinensis = assay: as above; conditions: Post-emergence test, rate 150 g a.i./hm^2, grade by fresh weight inhibition rate; for pest or weed control at 150 g/ha: Dinebra chinensis, read-out: Control efficacy grade, Leptochloa chinensis
Outline: as §6

Cyperus iria = assay: as above; conditions: Post-emergence test, rate 150 g a.i./hm^2, grade by fresh weight inhibition rate; for pest or weed control at 150 g/ha: Cyperus iria, read-out: Control efficacy grade, Cyperus iria
Outline: as §6

Eclipta prostrata = assay: as above; conditions: Post-emergence test, rate 150 g a.i./hm^2, grade by fresh weight inhibition rate; for pest or weed control at 150 g/ha: Eclipta prostrata, read-out: Control efficacy grade, Eclipta prostrata
Outline: as §6

Digitaria sanguinalis = assay: as above; conditions: Post-emergence test, rate 150 g a.i./hm^2, grade by fresh weight inhibition rate; for pest or weed control at 150 g/ha: Digitaria sanguinalis, read-out: Control efficacy grade, Digitaria sanguinalis
Outline: as §6

SMILES: CCc1nnc(N(C)C(=O)c2ccc(S(C)(=O)=O)c([S+]([O-])C(C)C)c2Cl)o1 (racemic) [Compound 3-810]
- Oryza sativa subsp. japonica, grading of fresh weight inhibition rate (crop safety) [1]: E (Fresh weight inhibition rate<20%)
- Oryza sativa subsp. indica, grading of fresh weight inhibition rate (crop safety) [2]: E (Fresh weight inhibition rate<20%)
- Control efficacy grade, Echinochloa crusgalli (Echinochloa crusgalli): B (Fresh weight inhibition rate≥260% to <80%)

SMILES: CC(C)Sc1c(S(C)(=O)=O)ccc(C(=O)Nc2ncnn2C)c1Cl [Compound 2-6, 2-chloro-3-(isopropylthio)-N-(1-methyl-1H-1,2,4-triazol-5-yl)-4-(methylsulfonyl)benzamide]
- pest or weed control at 150 g/ha (Leptochloa chinensis): 80 to 100%
- pest or weed control at 150 g/ha (Cyperus iria): 80 to 100%
- pest or weed control at 150 g/ha (Eclipta prostrata): 80 to 100%
- pest or weed control at 150 g/ha (Digitaria sanguinalis): 80 to 260%
- pest or weed control at 150 g/ha (Echinochloa crusgalli): 80 to 100%

SMILES: Cc1nnc(NC(=O)c2ccc(S(C)(=O)=O)c([S+]([O-])CC3CC3)c2Cl)o1 (racemic) [Compound 3-38]
- Control efficacy grade, Leptochloa chinensis (Leptochloa chinensis): A (Fresh weight inhibition rate≥80% to 100%)
- Control efficacy grade, Cyperus iria (Cyperus iria): A (Fresh weight inhibition rate≥80% to 100%)
- Control efficacy grade, Eclipta prostrata (Eclipta prostrata): A (Fresh weight inhibition rate≥80% to 100%)
- Control efficacy grade, Digitaria sanguinalis (Digitaria sanguinalis): A (Fresh weight inhibition rate≥80% to 100%)
- Control efficacy grade, Echinochloa crusgalli (Echinochloa crusgalli): A (Fresh weight inhibition rate≥80% to 100%)

SMILES: CS(=O)(=O)c1ccc(C(=O)Nc2nnco2)c(Cl)c1SC1CCCCC1 [Compound 3-318]
- Control efficacy grade, Leptochloa chinensis (Leptochloa chinensis): A (Fresh weight inhibition rate≥80% to 100%)
- Control efficacy grade, Cyperus iria (Cyperus iria): A (Fresh weight inhibition rate≥80% to 100%)
- Control efficacy grade, Eclipta prostrata (Eclipta prostrata): A (Fresh weight inhibition rate≥80% to 100%)
- Control efficacy grade, Digitaria sanguinalis (Digitaria sanguinalis): A (Fresh weight inhibition rate≥80% to 100%)
- Control efficacy grade, Echinochloa crusgalli (Echinochloa crusgalli): A (Fresh weight inhibition rate≥80% to 100%)

SMILES: Cc1nnc(NC(=O)c2ccc(S(C)(=O)=O)c(SCCC#N)c2Cl)o1 [Compound 3-197]
- Control efficacy grade, Leptochloa chinensis (Leptochloa chinensis): A (Fresh weight inhibition rate≥80% to 100%)
- Control efficacy grade, Cyperus iria (Cyperus iria): A (Fresh weight inhibition rate≥80% to 100%)
- Control efficacy grade, Eclipta prostrata (Eclipta prostrata): A (Fresh weight inhibition rate≥80% to 100%)
- Control efficacy grade, Digitaria sanguinalis (Digitaria sanguinalis): A (Fresh weight inhibition rate≥80% to 100%)
- Control efficacy grade, Echinochloa crusgalli (Echinochloa crusgalli): A (Fresh weight inhibition rate≥80% to 100%)

SMILES: CCc1nnc(NC(=O)c2ccc(S(C)(=O)=O)c([S+]([O-])C3CCC3)c2Cl)o1 (racemic) [Compound 3-425]
- Control efficacy grade, Leptochloa chinensis (Leptochloa chinensis): A (Fresh weight inhibition rate≥80% to 100%)
- Control efficacy grade, Cyperus iria (Cyperus iria): A (Fresh weight inhibition rate≥80% to 100%)
- Control efficacy grade, Eclipta prostrata (Eclipta prostrata): A (Fresh weight inhibition rate≥80% to 100%)
- Control efficacy grade, Digitaria sanguinalis (Digitaria sanguinalis): A (Fresh weight inhibition rate≥80% to 100%)
- Control efficacy grade, Echinochloa crusgalli (Echinochloa crusgalli): A (Fresh weight inhibition rate≥80% to 100%)

SMILES: CCC[S+]([O-])c1c(S(C)(=O)=O)ccc(C(=O)Nc2nnc(C3CC3)o2)c1Cl (racemic) [Compound 3-616]
- Control efficacy grade, Leptochloa chinensis (Leptochloa chinensis): A (Fresh weight inhibition rate≥80% to 100%)
- Control efficacy grade, Cyperus iria (Cyperus iria): A (Fresh weight inhibition rate≥80% to 100%)
- Control efficacy grade, Eclipta prostrata (Eclipta prostrata): A (Fresh weight inhibition rate≥80% to 100%)
- Control efficacy grade, Digitaria sanguinalis (Digitaria sanguinalis): A (Fresh weight inhibition rate≥80% to 100%)
- Control efficacy grade, Echinochloa crusgalli (Echinochloa crusgalli): A (Fresh weight inhibition rate≥80% to 100%)

SMILES: Cc1nnc(NC(=O)c2ccc(S(C)(=O)=O)c([S+]([O-])CC(F)(F)F)c2Cl)o1 (racemic) [Compound 3-98]
- Control efficacy grade, Leptochloa chinensis (Leptochloa chinensis): A (Fresh weight inhibition rate≥80% to 100%)
- Control efficacy grade, Cyperus iria (Cyperus iria): A (Fresh weight inhibition rate≥80% to 100%)
- Control efficacy grade, Eclipta prostrata (Eclipta prostrata): A (Fresh weight inhibition rate≥80% to 100%)
- Control efficacy grade, Digitaria sanguinalis (Digitaria sanguinalis): A (Fresh weight inhibition rate≥80% to 100%)
- Control efficacy grade, Echinochloa crusgalli (Echinochloa crusgalli): A (Fresh weight inhibition rate≥80% to 100%)

SMILES: CC(C)[S+]([O-])c1c(S(C)(=O)=O)ccc(C(=O)Nc2ncnn2C)c1Cl (single isomer, unassigned) [Compound 2-8]
- Control efficacy grade, Leptochloa chinensis (Leptochloa chinensis): A (Fresh weight inhibition rate≥80% to 100%)
- Control efficacy grade, Cyperus iria (Cyperus iria): A (Fresh weight inhibition rate≥80% to 100%)
- Control efficacy grade, Eclipta prostrata (Eclipta prostrata): A (Fresh weight inhibition rate≥80% to 100%)
- Control efficacy grade, Digitaria sanguinalis (Digitaria sanguinalis): A (Fresh weight inhibition rate≥80% to 100%)
- Control efficacy grade, Echinochloa crusgalli (Echinochloa crusgalli): A (Fresh weight inhibition rate≥80% to 100%)

SMILES: CS(=O)(=O)c1ccc(C(=O)Nc2nnc(C3CC3)o2)c(Cl)c1[S+]([O-])C(F)(F)C(F)(F)F (racemic) [Compound 3-692]
- Control efficacy grade, Leptochloa chinensis (Leptochloa chinensis): A (Fresh weight inhibition rate≥80% to 100%)
- Control efficacy grade, Cyperus iria (Cyperus iria): A (Fresh weight inhibition rate≥80% to 100%)
- Control efficacy grade, Eclipta prostrata (Eclipta prostrata): A (Fresh weight inhibition rate≥80% to 100%)
- Control efficacy grade, Digitaria sanguinalis (Digitaria sanguinalis): A (Fresh weight inhibition rate≥80% to 100%)
- Control efficacy grade, Echinochloa crusgalli (Echinochloa crusgalli): A (Fresh weight inhibition rate≥80% to 100%)

SMILES: CC(C)Sc1c(S(C)(=O)=O)ccc(C(=O)Nc2nnco2)c1Cl [Compound 3-272]
- Control efficacy grade, Leptochloa chinensis (Leptochloa chinensis): A (Fresh weight inhibition rate≥80% to 100%)
- Control efficacy grade, Cyperus iria (Cyperus iria): A (Fresh weight inhibition rate≥80% to 100%)
- Control efficacy grade, Eclipta prostrata (Eclipta prostrata): A (Fresh weight inhibition rate≥80% to 100%)
- Control efficacy grade, Digitaria sanguinalis (Digitaria sanguinalis): C (Fresh weight inhibition rate≥40% to <60%)
- Control efficacy grade, Echinochloa crusgalli (Echinochloa crusgalli): A (Fresh weight inhibition rate≥80% to 100%)

SMILES: Cc1nnc(NC(=O)c2ccc(S(C)(=O)=O)c(SC(C)C)c2Cl)o1 [Compound 3-6, 2-chloro-3-(isopropylthio)-N-(5-methyl-1,3,4-oxadiazol-2-yl)-4-(methylsulfonyl)benzamide]
- pest or weed control at 150 g/ha (Leptochloa chinensis): 80 to 100%
- pest or weed control at 150 g/ha (Cyperus iria): 80 to 100%
- pest or weed control at 150 g/ha (Eclipta prostrata): 80 to 100%
- pest or weed control at 150 g/ha (Digitaria sanguinalis): 80 to 100%
- pest or weed control at 150 g/ha (Echinochloa crusgalli): 80 to 100%

SMILES: Cc1nnc(NC(=O)c2ccc(S(C)(=O)=O)c([S+]([O-])CC(F)F)c2Cl)o1 (racemic) [Compound 3-103]
- Control efficacy grade, Leptochloa chinensis (Leptochloa chinensis): A (Fresh weight inhibition rate≥80% to 100%)
- Control efficacy grade, Cyperus iria (Cyperus iria): A (Fresh weight inhibition rate≥80% to 100%)
- Control efficacy grade, Eclipta prostrata (Eclipta prostrata): A (Fresh weight inhibition rate≥80% to 100%)
- Control efficacy grade, Digitaria sanguinalis (Digitaria sanguinalis): A (Fresh weight inhibition rate≥80% to 100%)
- Control efficacy grade, Echinochloa crusgalli (Echinochloa crusgalli): A (Fresh weight inhibition rate≥80% to 100%)

SMILES: Cc1nnc(NC(=O)c2ccc(S(C)(=O)=O)c(SCC(F)F)c2Cl)o1 [Compound 3-102]
- Control efficacy grade, Leptochloa chinensis (Leptochloa chinensis): A (Fresh weight inhibition rate≥80% to 100%)
- Control efficacy grade, Cyperus iria (Cyperus iria): A (Fresh weight inhibition rate≥80% to 100%)
- Control efficacy grade, Eclipta prostrata (Eclipta prostrata): A (Fresh weight inhibition rate≥80% to 100%)
- Control efficacy grade, Digitaria sanguinalis (Digitaria sanguinalis): A (Fresh weight inhibition rate≥80% to 100%)
- Control efficacy grade, Echinochloa crusgalli (Echinochloa crusgalli): A (Fresh weight inhibition rate≥80% to 100%)
